Assays:
[1] = tested on: rhGBA1 (Cerezyme) in plasma; test: Stabilisation of rhGBA1 in plasma, 4-MU activity; assay type: biochemical, human; conditions: rhGBA1 10 nM in plasma, peptides 0.001-10 μM or Ambroxol 100-1000 μM, 0-120 minutes, 0.5% DMSO
Method: We then investigated whether peptides L4, D8, and D12 could stabilise rhGBA1 in plasma. […] The solutions were then incubated with 4-MU-β-D-Glu for an additional 30 minutes, and the remaining rhGBA1 activity was determined.
Specifically, high concentrations of all peptides (10–1 μM) led to enzyme binding but also GBA1 inhibition after short incubations (0 to 30 minutes). […] To discard potential degradation of D8 and D12 during plasma experiments, the peptides were incubated in plasma at 0.1 μM for 2 hours, followed by the addition of rhGBA1 to measure its activity. This was compared to controls where D8 and D12 were added to plasma and directly tested for GBA1 activity.
Fig. 3 Stabilisation of rhGBA1 (10 nM) in plasma by cyclic peptides D8 and D12. […] Control contained 0.5% DMSO. Error ranges depict standard deviations from n = 3 replicates, measured in technical duplicates. *p < 0.05, **p < 0.01, ***p < 0.001.
Selective Cyclic Peptide Ligands as GBA1 Stabilizers Katzy et al. curves were determined in triplicate using the Tycho NT.6 (NanoTemper), according to manufacturer […]
2.9. Cerezyme Stabilization studies in plasma […]
Specific GBA1 activity was determined as described above, with 25 µL of sample incubated for 30 min with 3.7 mM 4MU-β-Glc substrate.

[2] = target: T1, recombinant human GBA1 (rhGBA1, Cerezyme) (Homo sapiens, UniProt P04062, R534H); test: Thermostability of rhGBA1, label-free differential scanning fluorimetry (Tycho NT.6); assay type: binding; conditions: rhGBA1 at 1 μM, 20 mM HEPES pH 7.0, 100 mM NaCl, 0.5% DMSO, 2 h room temperature; N. D. = not determined due to a lack of stabilisation effect
T1 construct: purchased Cerezyme
T1 sequence (P04062 40-536 R534H): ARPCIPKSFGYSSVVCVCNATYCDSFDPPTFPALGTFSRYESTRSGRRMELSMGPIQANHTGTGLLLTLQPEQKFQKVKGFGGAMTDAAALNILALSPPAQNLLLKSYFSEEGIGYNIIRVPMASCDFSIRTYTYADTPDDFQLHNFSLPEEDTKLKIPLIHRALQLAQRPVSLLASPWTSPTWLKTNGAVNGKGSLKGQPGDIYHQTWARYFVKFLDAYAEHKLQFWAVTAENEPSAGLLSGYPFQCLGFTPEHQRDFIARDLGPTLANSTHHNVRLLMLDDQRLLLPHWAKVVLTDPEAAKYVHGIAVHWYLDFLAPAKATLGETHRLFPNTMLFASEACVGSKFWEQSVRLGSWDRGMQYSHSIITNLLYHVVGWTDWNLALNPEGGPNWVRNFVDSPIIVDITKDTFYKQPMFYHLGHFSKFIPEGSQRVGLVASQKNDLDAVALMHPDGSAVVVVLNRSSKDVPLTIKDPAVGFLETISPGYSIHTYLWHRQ
Method: Samples were incubated at room temperature for 2
hours before measurement in the Tycho NT6.
Thermostability assays in rhGBA (Cerezyme)
Varying concentrations of peptides were incubated with 1 µM rhGBA1 in 20 mM HEPES pH 7.0 with 100 mM NaCl, with a final DMSO concentration of 0.5 %, for 2 hours at room temperature. Melting

ΔTi,max [2]: 12.3 ± 5.4 °C
SMILES: Nc1c(Br)cc(Br)cc1CN[C@H]1CC[C@H](O)CC1 [Ambroxol, reference compound]
stabilisation of rhGBA1 against degradation in plasma [1]: no stabilisation effect
